Literature values, collected in patent publication US20210137911A1, “NOVEL CHRONOTHERAPY BASED ON CIRCADIAN RHYTHMS” (THE TRUSTEES OF THE UNIVERSITY OF PENNSYLVANIA, priority 2014, published 2021).
Like-named read-outs stand apart in the source and are kept apart here.

Conditions: cited from earlier work
[1] = half-life of top selling therapeutic compounds (Table 1)
[2] = half-life of therapeutic compound as listed in Table 1

Row | Compound | ½ Life (in vivo) [h] | ½ Life [1] [h] | ½ Life [2] [h] | also measured
1 | NS(=O)(=O)c1cc2c(cc1Cl)NCNS2(=O)=O [Hydrocholorthiazide, reference compound] | 5.6 |  |  | half-life (see Table 1): 5.6 h
2 | C[C@H]1O[C@H](O[C@H]2[C@H](O)[C@@H](O)[C@@H](O[C@H]3[C@H](O)[C@@H](O)C(O)O[C@@H]3CO)O[C@@H]2CO)[C@H](O)[C@@H](O)[C@@H]1N[C@H]1C=C(CO)[C@@H](O)[C@H](O)[C@H]1O (stereo partly drawn) [Acarbose] |  | 2 |  | 
3 | CC(=O)S[C@@H]1CC2=CC(=O)CC[C@]2(C)[C@H]2CC[C@@]3(C)[C@@H](CC[C@@]34CCC(=O)O4)[C@H]12 [Spironolactone] | 0.166 |  |  | 
4 | Corticotropin (SYSMEHFRWGKPVGKKRRPVKVYPNGAEDESAEAFPLEF; Corticotropin; UniProt P01189 138-176, looked up) |  | 0.25 |  | 
5 | Cc1cnc(C(=O)NCCc2ccc(S(=O)(=O)NC(=O)NC3CCCCC3)cc2)cn1 [Glipizide] |  |  | 2 | 
6 | CCOC(=O)[C@H](CCc1ccccc1)N[C@@H](C)C(=O)N1Cc2ccccc2C[C@H]1C(=O)O [Quinapril] | 2 |  |  | 
7 | Rituximab | 0.8 |  |  | 
8 | NCC(=O)CCC(=O)O [Aminolevulinic acid] |  | 0.7 |  | 
9 | c1cc(CN2CCCNCCNCCCNCC2)ccc1CN1CCCNCCNCCCNCC1 [Plerixafor] |  |  | 4.4 | 
10 | C=C1/C(=C\C=C2/CCC[C@]3(C)[C@@H]([C@H](C)CCCC(C)(C)O)CC[C@@H]23)C[C@@H](O)C[C@@H]1O [Calcitriol] |  | 5 |  | 
11 | C[C@@H](CO)NC(=O)[C@@H]1C=C2c3cccc4[nH]cc(c34)C[C@H]2N(C)C1 [Ergonovine] |  | 1 |  | 
12 | O=NN(CCCl)C(=O)NCCCl [Carmustine] | 0.25 |  |  | 
13 | CN(C)CCc1c[nH]c2ccc(C[C@H]3COC(=O)N3)cc12 [Zolmitriptan] | 3 |  |  | 
14 | Cc1c(OCC(F)(F)F)ccnc1C[S+]([O-])c1nc2ccccc2[nH]1 (stereo not drawn) [Lansoprazole] |  |  | 1.5 | 
15 | OC(CCCN1CCCCC1)(c1ccccc1)c1ccccc1 [Diphenidol] |  | 4 |  | 
16 | CN(C)[C@@H](CCOc1cccc2ccccc12)c1ccccc1 [Dapoxetine] |  | 1 |  | 
17 | N[C@@H](Cc1ccc(O)c(O)c1)C(=O)O [L-DOPA] | 0.833 |  |  | 
18 | CC(C(=O)O)c1cccc(Oc2ccccc2)c1 (stereo not drawn) [Fenoprofen] |  | 3 |  | 
19 | Cc1cccc([C@H](C)c2cnc[nH]2)c1C [Dexmedetomidine] |  | 2 |  | 
20 | CN1C(C(=O)Nc2ccccn2)=C(O)c2sc(Cl)cc2S1(=O)=O [Lornoxicam] |  |  | 3 | 

Row | Compound | ½ Life (in vivo) [h] | ½ Life [1] [h] | ½ Life [2] [h] | also measured
21 | Drotrecogin alfa | 5.5 |  |  | 
22 | CCOc1ccccc1OCCN[C@H](C)Cc1ccc(OC)c(S(N)(=O)=O)c1 [Tamsulosin] | 5 |  |  | 
23 | COc1ccc(Cl)cc1C(=O)NCCc1ccc(S(=O)(=O)NC(=O)NC2CCCCC2)cc1 [Glyburide] |  |  | 1.4 | 
24 | O=C1NC(c2ccccc2)(c2ccccc2)C(=O)N1COP(=O)(O)O [Fosphenytoin] |  | 0.25 |  | 
25 | C[C@]12CC[C@H]3[C@@H](CCC4=CC(=O)CC[C@@]43C)[C@@H]1CC[C@@H]2O [Testosterone] | 0.166 |  |  | 
26 | CN[C@@H](C)Cc1ccccc1 [Methamphetamine] |  |  | 4 | 
27 | CCN(CC)CCOC(=O)c1ccc(N)cc1 [Procaine] |  |  | 0.1283 | 
28 | Denileukin diftitox |  | 1.166 |  | 
29 | CCCCC(C)(O)C/C=C/[C@H]1[C@H](O)CC(=O)[C@@H]1CCCCCCC(=O)OC (mixture of isomers) [Misoprostol] |  |  | 0.33 | 
30 | COc1ccnc(C[S+]([O-])c2nc3ccc(OC(F)F)cc3[nH]2)c1OC (stereo not drawn) [Pantoprazole] |  |  | 1 | 
31 | CCC(=O)NCC[C@@H]1CCc2ccc3c(c21)CCO3 [Ramelteon] | 1 |  |  | 
32 | CNC1(c2ccccc2Cl)CCCCC1=O (stereo not drawn) [Ketamine] | 2.5 |  |  | 
33 | C=CC[N+]1([C@H]2C[C@H]3[C@@H]4CC[C@H]5C[C@H](O)[C@@H](N6CCOCC6)C[C@]5(C)[C@H]4CC[C@]3(C)[C@H]2OC(C)=O)CCCC1 [Rocuronium] | 1 |  |  | 
34 | CC1(C)O[C@@H]2C[C@H]3[C@@H]4C[C@H](F)C5=CC(=O)C=C[C@]5(C)[C@H]4[C@@H](O)C[C@]3(C)[C@]2(C(=O)CO)O1 [Flunisolide] |  | 1.8 |  | 
35 | COc1cc2c(cc1OC)[C@@H](Cc1cc(OC)c(OC)c(OC)c1)[N+](C)(CCCOC(=O)CC/C=C/CCC(=O)OCCC[N+]1(C)CCc3cc(OC)c(OC)cc3[C@H]1Cc1cc(OC)c(OC)c(OC)c1)CC2 (stereo partly drawn) [Mivacurium] |  |  | 1.7 | 
36 | Cc1nc(Nc2ncc(C(=O)Nc3c(C)cccc3Cl)s2)cc(N2CCN(CCO)CC2)n1 [Dasatinib] |  | 3 |  | 
37 | CC[C@@H](c1cccc(O)c1)[C@@H](C)CN(C)C [Tapentadol] | 4 |  |  | 
38 | CCCCP(=O)(O)CCCN [SGS742] | 4 |  |  | 
39 | CNCCc1ccccn1 [Betahistine] |  | 3 |  | 
40 | COc1cc([C@@H]2c3cc4c(cc3[C@@H](O[C@@H]3O[C@@H]5CO[C@@H](c6cccs6)O[C@H]5[C@H](O)[C@H]3O)[C@H]3COC(=O)[C@H]23)OCO4)cc(OC)c1O [Teniposide] | 5 |  |  | 

Row | Compound | ½ Life (in vivo) [h] | ½ Life [1] [h] | ½ Life [2] [h] | also measured
41 | Tositumomab | 0.8 |  |  | 
42 | COC(=O)Nc1nc2ccc(C(=O)c3ccccc3)cc2[nH]1 [Mebendazole] |  |  | 2.5 | 
43 | COc1ccc2c(c1)[C@]13CCCC[C@@H]1[C@H](C2)N(C)CC3 [Dextromethorphan] |  | 3 |  | 
44 | CCOC(=O)[C@H](CCc1ccccc1)N[C@@H](C)C(=O)N1Cc2cc(OC)c(OC)cc2C[C@H]1C(=O)O [Moexipril] |  |  | 1 | 
45 | O=C(c1ccccc1)c1ccc2n1CCC2C(=O)O (stereo not drawn) [Ketorolac] |  |  | 2.5 | 
46 | Leptin | 0.415 |  |  | 
47 | O=C(CCCN1CC=C(n2c(=O)[nH]c3ccccc32)CC1)c1ccc(F)cc1 [Droperidol] |  | 1.4 |  | 
48 | Brc1c(NC2=NCCN2)ccc2nccnc12 [Brimonidine] |  | 2 |  | 
49 | CC(C)C(=O)O[C@@H](OC(=O)NC[C@H](CC(=O)O)c1ccc(Cl)cc1)C(C)C [Arbaclofen Placarbil] | 0.1 |  |  | 
50 | Cn1c(=O)c2[nH]cnc2n(C)c1=O [Oxtriphylline] |  |  | 3 | 
51 | CCc1cc(C(N)=S)ccn1 [Ethionamide] |  | 2 |  | 
52 | CC(=O)N[C@@H](CS)C(=O)O [Acetylcysteine] |  | 5.6 |  | 
53 | C[C@]12CCC(=O)C=C1CC[C@H]1[C@@H]3CC[C@](O)(C(=O)CO)[C@@]3(C)C[C@H](O)[C@@]12F [Fludrocortisone] |  | 3.5 |  | 
54 | CCC[C@H](N[C@@H](C)C(=O)N1[C@H](C(=O)O)C[C@@H]2CCCC[C@@H]21)C(=O)OCC [Perindopril] |  |  | 1.2 | 
55 | CNC[C@H](O)c1cccc(O)c1 [Phenylephrine] |  |  | 2.1 | 
56 | CCOC(=O)Nc1ccc2c(c1)N(C(=O)CCN1CCOCC1)c1ccccc1S2 [Moricizine] |  |  | 2 | 
57 | CCNC(=O)CCC/C=C\C[C@@H]1[C@@H](/C=C/[C@@H](O)CCc2ccccc2)[C@H](O)C[C@@H]1O [Bimatoprost] |  | 0.75 |  | 
58 | COc1ccc2cccc(CCNC(C)=O)c2c1 [Agomelatine] |  | 2 |  | 
59 | OCCN1C[C@H](O)[C@@H](O)[C@H](O)[C@H]1CO [Miglitol] |  |  | 2 | 
